Reference: the NIST ThermoML archive (doi:10.1016/j.tca.2008.06.004)

What was measured:
[1] = 101.33 kPa, Liquid; for mass density: Pycnometric method; for speed of sound: Linear variable-path acoustic interferometer
[2] = xn = mol fraction of the nth substance listed; details: 101 kPa, Liquid; for excess molar volume: 298.15 K, Direct dilatometry; for speed of sound: 308.15 K, Linear variable-path acoustic interferometer
[3] = excess molar enthalpy (molar enthalpy of mixing); xn = mol fraction of the nth substance listed; details: 308.15 K, 101 kPa, Liquid, Calvet calorimetry

Cc1ccccc1N [2-methylaniline]
[1]
Details | mass density [kg/m3] | speed of sound [m/s]
298.15 K | 994.28 | –
308.15 K | – | 1603

Cc1ccccc1N [2-methylaniline] + C1CCCCC1
Details | excess molar enthalpy [kcal/mol] | excess molar volume [m3/mol] | speed of sound [m/s]
[2], x1 = 0.0663 | – | – | 1215
[2], x1 = 0.0768 | – | 2.41e-07 | –
[2], x1 = 0.1293 | – | – | 1221
[2], x1 = 0.1415 | – | 3.87e-07 | –
[2], x1 = 0.1758 | – | – | 1228
[2], x1 = 0.1925 | – | 4.7e-07 | –
[2], x1 = 0.2355 | – | – | 1239
[2], x1 = 0.2442 | – | 5.29e-07 | –
[2], x1 = 0.2901 | – | 5.62e-07 | –
[2], x1 = 0.2902 | – | – | 1252
[2], x1 = 0.3335 | – | – | 1264
[2], x1 = 0.3415 | – | 5.81e-07 | –
[2], x1 = 0.393 | – | – | 1282
[2], x1 = 0.3981 | – | 5.82e-07 | –
[2], x1 = 0.4506 | – | 5.68e-07 | –
[2], x1 = 0.4881 | – | – | 1315
[2], x1 = 0.5225 | – | 5.29e-07 | –
[2], x1 = 0.556 | – | – | 1342
[2], x1 = 0.6103 | – | 4.57e-07 | –
[2], x1 = 0.6453 | – | – | 1382
[2], x1 = 0.6875 | – | 3.79e-07 | –
[2], x1 = 0.7117 | – | – | 1415
[2], x1 = 0.7513 | – | 3.07e-07 | –
[2], x1 = 0.7986 | – | – | 1462
[2], x1 = 0.8224 | – | 2.22e-07 | –
[2], x1 = 0.8479 | – | – | 1493
[2], x1 = 0.9026 | – | – | 1528
[2], x1 = 0.9119 | – | 1.11e-07 | –
[3], x1 = 0.0527 | 0.0635 | – | –
[3], x1 = 0.1017 | 0.121 | – | –
[3], x1 = 0.1628 | 0.189 | – | –
[3], x1 = 0.2349 | 0.26 | – | –
[3], x1 = 0.2681 | 0.313 | – | –
[3], x1 = 0.3614 | 0.354 | – | –
[3], x1 = 0.4213 | 0.382 | – | –
[3], x1 = 0.4907 | 0.399 | – | –
[3], x1 = 0.5613 | 0.398 | – | –
[3], x1 = 0.6121 | 0.387 | – | –
[3], x1 = 0.6774 | 0.357 | – | –
[3], x1 = 0.7643 | 0.294 | – | –
[3], x1 = 0.8391 | 0.219 | – | –
[3], x1 = 0.931 | 0.102 | – | –

Cc1ccccc1N [2-methylaniline] + CCCCCC
Details | excess molar enthalpy [kcal/mol] | excess molar volume [m3/mol] | speed of sound [m/s]
[2], x1 = 0.0697 | – | – | 1056
[2], x1 = 0.0712 | – | -4.8e-08 | –
[2], x1 = 0.1172 | – | – | 1075
[2], x1 = 0.1767 | – | -1.25e-07 | –
[2], x1 = 0.1851 | – | – | 1105
[2], x1 = 0.2524 | – | -1.84e-07 | –
[2], x1 = 0.2657 | – | – | 1142
[2], x1 = 0.2933 | – | -2.15e-07 | –
[2], x1 = 0.3119 | – | – | 1165
[2], x1 = 0.3442 | – | -2.52e-07 | –
[2], x1 = 0.3707 | – | – | 1194
[2], x1 = 0.3801 | – | -2.77e-07 | –
[2], x1 = 0.4443 | – | -3.15e-07 | –
[2], x1 = 0.4478 | – | – | 1232
[2], x1 = 0.4903 | – | -3.38e-07 | –
[2], x1 = 0.5009 | – | – | 1259
[2], x1 = 0.5613 | – | -3.63e-07 | –
[2], x1 = 0.5787 | – | – | 1297
[2], x1 = 0.6363 | – | -3.71e-07 | –
[2], x1 = 0.6449 | – | – | 1329
[2], x1 = 0.6991 | – | -3.61e-07 | –
[2], x1 = 0.709 | – | – | 1359
[2], x1 = 0.7552 | – | -3.36e-07 | –
[2], x1 = 0.7673 | – | – | 1389
[2], x1 = 0.8345 | – | -2.71e-07 | –
[2], x1 = 0.8391 | – | – | 1433
[2], x1 = 0.9123 | – | – | 1501
[2], x1 = 0.9265 | – | -1.46e-07 | –
[3], x1 = 0.0678 | 0.0385 | – | –
[3], x1 = 0.1317 | 0.084 | – | –
[3], x1 = 0.1927 | 0.132 | – | –
[3], x1 = 0.2505 | 0.179 | – | –
[3], x1 = 0.3314 | 0.242 | – | –
[3], x1 = 0.4015 | 0.29 | – | –
[3], x1 = 0.4718 | 0.328 | – | –
[3], x1 = 0.5317 | 0.35 | – | –
[3], x1 = 0.5997 | 0.36 | – | –
[3], x1 = 0.6532 | 0.355 | – | –
[3], x1 = 0.7013 | 0.341 | – | –
[3], x1 = 0.7717 | 0.301 | – | –
[3], x1 = 0.8439 | 0.235 | – | –
[3], x1 = 0.9164 | 0.142 | – | –

Cc1ccccc1N [2-methylaniline] + CCCCCCC
Details | excess molar enthalpy [kcal/mol] | excess molar volume [m3/mol] | speed of sound [m/s]
[2], x1 = 0.0707 | – | – | 1102
[2], x1 = 0.0814 | – | -4.8e-08 | –
[2], x1 = 0.1227 | – | – | 1115
[2], x1 = 0.1663 | – | -1.02e-07 | –
[2], x1 = 0.1758 | – | – | 1129
[2], x1 = 0.2224 | – | -1.37e-07 | –
[2], x1 = 0.2378 | – | – | 1148
[2], x1 = 0.2812 | – | -1.71e-07 | –
[2], x1 = 0.3079 | – | – | 1172
[2], x1 = 0.3388 | – | -1.99e-07 | –
[2], x1 = 0.3508 | – | – | 1187
[2], x1 = 0.3991 | – | -2.23e-07 | –
[2], x1 = 0.4047 | – | – | 1208
[2], x1 = 0.4554 | – | -2.38e-07 | –
[2], x1 = 0.4679 | – | – | 1233
[2], x1 = 0.5218 | – | -2.47e-07 | –
[2], x1 = 0.547 | – | – | 1266
[2], x1 = 0.5804 | – | -2.45e-07 | –
[2], x1 = 0.6131 | – | – | 1296
[2], x1 = 0.6446 | – | -2.33e-07 | –
[2], x1 = 0.6884 | – | – | 1334
[2], x1 = 0.7112 | – | -2.1e-07 | –
[2], x1 = 0.7597 | – | – | 1373
[2], x1 = 0.7819 | – | -1.73e-07 | –
[2], x1 = 0.8208 | – | – | 1413
[2], x1 = 0.8503 | – | -1.27e-07 | –
[2], x1 = 0.9224 | – | – | 1501
[2], x1 = 0.9383 | – | -6.7e-08 | –
[3], x1 = 0.0734 | 0.0479 | – | –
[3], x1 = 0.1457 | 0.0872 | – | –
[3], x1 = 0.1968 | 0.112 | – | –
[3], x1 = 0.2678 | 0.144 | – | –
[3], x1 = 0.3109 | 0.162 | – | –
[3], x1 = 0.3874 | 0.193 | – | –
[3], x1 = 0.4467 | 0.215 | – | –
[3], x1 = 0.5019 | 0.234 | – | –
[3], x1 = 0.5876 | 0.256 | – | –
[3], x1 = 0.6513 | 0.264 | – | –
[3], x1 = 0.7016 | 0.263 | – | –
[3], x1 = 0.7767 | 0.244 | – | –
[3], x1 = 0.8312 | 0.215 | – | –
[3], x1 = 0.9267 | 0.12 | – | –

C1CCCCC1 [cyclohexane]
[1], 298.15 K
Details | mass density [kg/m3] | speed of sound [m/s]
– | 773.94 | 1255

CCCCCCC [heptane]
[1]
Details | mass density [kg/m3] | speed of sound [m/s]
298.15 K | 679.49 | –
308.15 K | – | 1088

CCCCCC [hexane]
[1], 298.15 K
Details | mass density [kg/m3] | speed of sound [m/s]
– | 654.82 | 1079
